Source: publication PMC9585585, “Discovery of Small-Molecule Allosteric Inhibitors of PfATC as Antimalarials” (Journal of the American Chemical Society, 2022)

What was measured:
PfATC = PfATC (Plasmodium falciparum, UniProt A0A5K1K910); assay: biochemical; settings: in vitro activity assay, PfATC 50 nM, 2 mM CP, 1 mM aspartate; read-out: PfATC IC50
Description: Following washing with Lysis buffer
Excess imidazole was removed and the His-tag was cleaved
400Then, the sample was loaded onto a 5 ml HiTrap SP HP column (GE Healthcare, USA) and
410PfATC activity assay. Enzymatic reactions were performed in a total volume of 150 µL in 50 mM
Small-molecule dose-response curves were
The reactions were initiated by adding CP and quenched after 10 min with
After plates were sealed with transparent sealing
(§1) 420tape to prevent evaporation and incubated overnight in the dark place at room temperature. After
Analyses were performed using
The enzymatic assay was performed as described herein above for
Briefly, the reaction was carried out at room
The reaction was initiated by
Then the plate was covered by sealing
(§2) 430tape and kept in dark place at room temperature and then heated to 95 °C for 15min in dark and kept

HsATC = target: T1, HsATC (Homo sapiens, UniProt P27708); assay: HsATC activity assay; type: biochemical; settings: in vitro activity assay, 10 mM L-aspartate, 5 mM carbamoyl phosphate; read-out: HsATC IC50
T1 construct: ATCase domain of CAD; made in house; host or cells: E. coli BL21 star
T1 sequence (P27708 1918-2225 limits assumed): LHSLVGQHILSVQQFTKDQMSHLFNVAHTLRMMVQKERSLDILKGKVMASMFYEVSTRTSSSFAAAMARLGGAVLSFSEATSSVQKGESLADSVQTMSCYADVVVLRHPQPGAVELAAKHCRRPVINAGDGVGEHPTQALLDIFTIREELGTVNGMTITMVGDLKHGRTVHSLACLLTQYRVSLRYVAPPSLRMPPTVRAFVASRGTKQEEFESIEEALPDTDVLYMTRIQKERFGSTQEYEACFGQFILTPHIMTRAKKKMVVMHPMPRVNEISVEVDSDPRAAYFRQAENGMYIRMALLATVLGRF
Description: 417100μL of stop mix (two volumes of Antipyrine (26.5 mM 2,3-Dimethyl-1-phenyl-3-pyrazolin-5-
418one in 50% (v/v) sulfuric acid) and one volume of 2,3-Butanedione monoxime (80 mM 2,3-
419Butanedione monoxime in 5% (v/v) acetic acid). After plates were sealed with transparent sealing
as §1
421incubation, the plates were heated at 95 °C for 15 min in dark place, and kept for 30 min before
422measuring at 466 nm suing a Synergy H1 Hybrid Reader (BioTek). Analyses were performed using
423Microsoft Excel and Graph Pad Prism.
424HsATC activity assay. The enzymatic assay was performed as described herein above for
425enzymatic assay of PfATC with minor modifications. Briefly, the reaction was carried out at room
426temperature in a total volume of 150 μl of 10 mM L-aspartate and 5 mM carbamoyl phosphate
427saturated substrate solution in 50 mM Tris-Acetate buffer pH 8.3. hsATC was pre-incubated with
428inhibitor and L-Asp for 10 min at room temperature on a shaker. The reaction was initiated by
429adding CP and stopped after 5 min with […] color mix. Then the plate was covered by sealing
as §2
431the plate in the dark for another 30 min before measuring the absorbance at 466 nm suing a Synergy
432H1 Hybrid Reader (BioTek). […]

P. falciparum 3D7 = assay: Growth-inhibition assay of P. falciparum (SYBR Green I); type: cell-based, Plasmodium falciparum; settings: P. falciparum 3D7, 96 h; read-out: EC50 against blood stage 3D7 cultures
Description: 488Cell culture and growth-inhibition assay of P. falciparum. P. falciparum 3D7 parasites
489(Wellcome Trust Dundee) were maintained in continuous culture at 37 °C and an atmosphere
490consisting of 90% N 2, 5% O2, and 5% CO2 as described previously 30 with modifications.31
491Parasites were maintained in 25 mM 4-(2-hydroxyethyl)-1-piperazineethanesulfonic acid (HEPES)
492and 11.9 mM sodium bicarbonate buffered RPMI 1640 medium supplemented with D-glucose
493(11 mM), hypoxanthine, AlbuMAX-I (0.5% w/v), and 10 µg/mL gentamicin. 0+ blood was
494provided by “Hospital Novo Atibaia” (Brazil) in agreement with the ethics committee at ICB-USP.
495Compounds were tested for their inhibitory effect against P. falciparum 3D7 conducting SYBR
496Green I (Invitrogen) drug assays as reported. 32, 33 Briefly, two-fold serial dilutions of compounds
497were prepared in 96-well plates starting from 100 and 20 µM in technical triplicate and incubated
498for 96 h under normal growth conditions using an initial parasitemia of 0.5% and a hematocrit of
4992% in a volume of 100 µL per well. Parasite proliferation was measured by quantifying DNA via
500SYBR Green I emitted fluorescence in the wells after addition of 100 µL lysis buffer supplemented
501with SYBR Green I (0.02% v/v) and incubation for 1 h at room temperature in the dark.
502Fluorescence was quantified using a CLARIOstar plate reader (BMG Labtech, Germany) at
503excitation and emission wavelength bands of 485 (± 9) and 530 (± 12) nm, respectively. Focal and
504gain adjustment was performed using the negative controls (highest expected fluorescence signal).
505Data was acquired via the CLARIOstar (V5.20) and MARS software, manually normalized, and
506plotted using the nonlinear regression curve fit implemented in GraphPad Prism as described below
507in more detail. Non-treated parasites, highest solvent concentration on parasites, and highest drug
508concentration in medium were used as controls for maximal growth, solvent control, and native
509drug fluorescence, respectively.
511Nonlinear regression fit and analysis of dose-response drug assays. Nonlinear regression as
512implemented in GraphPad Prism 8.4.3 (log(inhibitor) vs. response – Variable slope (four
513parameters)) was used to fit the measured data to interpolate the IC 50 value from the curve. No
514specific model was applied. Data was pre-processed by min-max-scaling according to the
517where y is the fluorescence signal in each well, y minimum the background fluorescence, and ymaximum
518the highest measured fluorescence signal in the untreated wells. Drug concentrations (in µM) were
519transformed to the log(10)of the values. Means of each independent experiment were plotted as
520individual values, and the SD of the mean from the means shown as error bars. The test for
521homoscedasticity was performed to confirm if no weighting of values was appropriate.

malarial parasite = tested on: malarial parasite; set-up: method as in PMID 32129597; settings: cited from earlier work

Sequence of PfATC (A0A5K1K910 entry or part of it): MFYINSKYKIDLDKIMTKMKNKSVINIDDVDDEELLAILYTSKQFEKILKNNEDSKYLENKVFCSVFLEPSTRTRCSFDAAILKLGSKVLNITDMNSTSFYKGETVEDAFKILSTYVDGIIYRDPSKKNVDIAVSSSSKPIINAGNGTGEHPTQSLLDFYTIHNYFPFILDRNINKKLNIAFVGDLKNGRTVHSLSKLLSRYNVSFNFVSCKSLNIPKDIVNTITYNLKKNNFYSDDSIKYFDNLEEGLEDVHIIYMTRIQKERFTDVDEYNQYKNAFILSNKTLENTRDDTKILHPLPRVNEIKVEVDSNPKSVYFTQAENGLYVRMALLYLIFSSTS

Row | Compound | IC50 (PfATC) | IC50 (HsATC) | EC50 (P. falciparum 3D7) | inhibitory effects in ex vivo experiments (malarial parasite)
1 | CC(C)(C)OC(=O)Nc1sc(-c2ccccc2)cc1C(=O)NCCc1ccc(C(F)(F)F)cc1 [BDA-21] | 554 nM | 620 nM | 2420 nM | –
2 | O=C(O)C[C@H](NC(=O)CP(=O)(O)O)C(=O)O [PALA, N-(phosphonoacetyl)-L-aspartate] | – | – | – | no inhibitory effects
3 | CC(C)(C)OC(=O)Nc1sc(-c2ccccc2)cc1C(=O)NCCc1ccc(Br)cc1 [BDA-22] | 473 nM | 573 nM | 2890 nM | –
4 | CC(C)CCNc1sc(-c2ccccc2)cc1C(=O)NCCc1ccc(O)cc1 [BDA-19] | 4070 nM | 678 nM | 2330 nM | –
5 | CC(C)(C)OC(=O)Nc1sc(-c2ccccc2)cc1C(=O)NCC(O)c1ccccc1 (stereo not shown) [BDA-16] | 6080 nM | 870 nM | 1960 nM | –
6 | CC(C)(C)OC(=O)Nc1sc(-c2ccccc2)cc1C(=O)NCCc1ccc(O)c(O)c1 [BDA-25] | 181 nM | 403 nM | – | –
7 | CC(C)(C)OC(=O)Nc1sc(-c2cccc(C#N)c2)cc1C(=O)NCCc1ccc(O)cc1 [BDA-53] | 2720 nM | 383 nM | – | –
8 | CC(C)(C)OC(=O)Nc1sc(-c2ccc(C=O)cc2)cc1C(=O)NCCc1ccc(O)cc1 [BDA-45] | 3770 nM | 124 nM | – | –
9 | COc1ccccc1CCNC(=O)c1cc(-c2ccccc2)sc1NC(=O)OC(C)(C)C [BDA-18] | 1330 nM | 259 nM | 1850 nM | –
